{"source": "PubChem BioAssay AID2060326", "about": "(Molecular Pharmacology Branch, DTP, NCI, 2025)", "system": "MDA-MB-468 multi-cell spheroids, viability", "test": "Anticancer human tumor MDA-MB-468 cell line growth inhibition [IpAb];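 for all read-outs here: spheroids exposed to agents for seven days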;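 for viability, T/C: 100% = DMSO vehicle control viability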", "conditions": "for IC50: curve of first compound; for viability, T/C: stronger effect = lower value", "procedure,_shortened": "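Spheroids of 60% malignant cells, 25% HUVEC and 15% MSC were exposed to targeted agents combined with ipatasertib or abemaciclib. Doses started at or near clinical Cmax (10 microM when unknown) and fell in half-log steps.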", "key": {"[1]": {"conditions": "second compound 0.01 µM, first compound 0.0316 µM"}, "[2]": {"conditions": "second compound 0.01 µM, first compound 0.1 µM"}, "[3]": {"conditions": "second compound 0.0316 µM, first compound 0.0316 µM"}, "[4]": {"conditions": "second compound 0.0316 µM, first compound 0.1 µM"}, "[5]": {"conditions": "second compound 0.1 µM, first compound 0.0316 µM"}, "[6]": {"conditions": "second compound 0.1 µM, first compound 0.1 µM"}, "[7]": {"conditions": "second compound 0.316 µM, first compound 0.0316 µM"}, "[8]": {"conditions": "second compound 0.316 µM, first compound 0.1 µM"}, "[9]": {"conditions": "second compound 1 µM, first compound 0.0316 µM"}, "[10]": {"conditions": "second compound 1 µM, first compound 0.1 µM"}}, "data": [{"compound": "Cn1ncc(Cl)c1-c1cc(C(=O)NC(CN)Cc2cccc(F)c2)sc1Cl", "note": "(stereo not given) + CCN1CCN(Cc2ccc(Nc3ncc(F)c(-c4cc(F)c5nc(C)n(C(C)C)c5c4)n3)nc2)CC1", "values": [{"measurement": "IC50", "setting": "second compound 0.01 µM", "value": 461, "unit": "nM"}, {"measurement": "IC50", "setting": "second compound 0.0316 µM", "value": 319, "unit": "nM"}, {"measurement": "IC50", "setting": "second compound 0.1 µM", "value": 318, "unit": "nM"}, {"measurement": "IC50", "setting": "second compound 0.316 µM", "value": 396, "unit": "nM"}, {"measurement": "IC50", "setting": "second compound 1 µM", "value": 223, "unit": "nM"}, {"measurement": "viability, T/C", "setting": "[1]", "value": 88.4, "unit": "%"}, {"measurement": "viability, T/C", "setting": "[2]", "value": 74.1, "unit": "%"}, {"measurement": "viability, T/C", "setting": "second compound 0.01 µM, first compound 0.316 µM", "value": 57.7, "unit": "%"}, {"measurement": "viability, T/C", "setting": "second compound 0.01 µM, first compound 1 µM", "value": 36.6, "unit": "%"}, {"measurement": "viability, T/C", "setting": "second compound 0.01 µM, first compound 3.16 µM", "value": 11.8, "unit": "%"}, {"measurement": "viability, T/C", "setting": "second compound 0.01 µM, first compound 10 µM", "value": 0.13, "unit": "%"}, {"measurement": "viability, T/C", "setting": "[3]", "value": 97.3, "unit": "%"}, {"measurement": "viability, T/C", "setting": "[4]", "value": 58.5, "unit": "%"}, {"measurement": "viability, T/C", "setting": "second compound 0.0316 µM, first compound 0.316 µM", "value": 48, "unit": "%"}, {"measurement": "viability, T/C", "setting": "second compound 0.0316 µM, first compound 1 µM", "value": 34.1, "unit": "%"}, {"measurement": "viability, T/C", "setting": "second compound 0.0316 µM, first compound 3.16 µM", "value": 15.1, "unit": "%"}, {"measurement": "viability, T/C", "setting": "second compound 0.0316 µM, first compound 10 µM", "value": 0.12, "unit": "%"}, {"measurement": "viability, T/C", "setting": "[5]", "value": 109, "unit": "%"}, {"measurement": "viability, T/C", "setting": "[6]", "value": 72, "unit": "%"}, {"measurement": "viability, T/C", "setting": "second compound 0.1 µM, first compound 0.316 µM", "value": 51.5, "unit": "%"}, {"measurement": "viability, T/C", "setting": "second compound 0.1 µM, first compound 1 µM", "value": 31.8, "unit": "%"}, {"measurement": "viability, T/C", "setting": "second compound 0.1 µM, first compound 3.16 µM", "value": 11.2, "unit": "%"}, {"measurement": "viability, T/C", "setting": "second compound 0.1 µM, first compound 10 µM", "value": 0.11, "unit": "%"}, {"measurement": "viability, T/C", "setting": "[7]", "value": 81.2, "unit": "%"}, {"measurement": "viability, T/C", "setting": "[8]", "value": 72.6, "unit": "%"}, {"measurement": "viability, T/C", "setting": "second compound 0.316 µM, first compound 0.316 µM", "value": 53.4, "unit": "%"}, {"measurement": "viability, T/C", "setting": "second compound 0.316 µM, first compound 1 µM", "value": 32.6, "unit": "%"}, {"measurement": "viability, T/C", "setting": "second compound 0.316 µM, first compound 3.16 µM", "value": 5.2, "unit": "%"}, {"measurement": "viability, T/C", "setting": "second compound 0.316 µM, first compound 10 µM", "value": 0.11, "unit": "%"}, {"measurement": "viability, T/C", "setting": "[9]", "value": 81.5, "unit": "%"}, {"measurement": "viability, T/C", "setting": "[10]", "value": 52.9, "unit": "%"}, {"measurement": "viability, T/C", "setting": "second compound 1 µM, first compound 0.316 µM", "value": 53.4, "unit": "%"}, {"measurement": "viability, T/C", "setting": "second compound 1 µM, first compound 1 µM", "value": 26, "unit": "%"}, {"measurement": "viability, T/C", "setting": "second compound 1 µM, first compound 3.16 µM", "value": 2.78, "unit": "%"}, {"measurement": "viability, T/C", "setting": "second compound 1 µM, first compound 10 µM", "value": 0.19, "unit": "%"}]}, {"compound": "Cn1ncnc1[C@H]1c2n[nH]c(=O)c3cc(F)cc(c23)N[C@@H]1c1ccc(F)cc1", "note": "+ CCN1CCN(Cc2ccc(Nc3ncc(F)c(-c4cc(F)c5nc(C)n(C(C)C)c5c4)n3)nc2)CC1", "values": [{"measurement": "IC50", "setting": "second compound 0.01 µM", "value": "> 100", "unit": "nM"}, {"measurement": "IC50", "setting": "second compound 0.0316 µM", "value": "> 100", "unit": "nM"}, {"measurement": "IC50", "setting": "second compound 0.1 µM", "value": "> 100", "unit": "nM"}, {"measurement": "IC50", "setting": "second compound 0.316 µM", "value": "> 100", "unit": "nM"}, {"measurement": "IC50", "setting": "second compound 1 µM", "value": "> 100", "unit": "nM"}, {"measurement": "viability, T/C", "setting": "second compound 0.01 µM, first compound 0.000316 µM", "value": 89, "unit": "%"}, {"measurement": "viability, T/C", "setting": "second compound 0.01 µM, first compound 0.001 µM", "value": 91.1, "unit": "%"}, {"measurement": "viability, T/C", "setting": "second compound 0.01 µM, first compound 0.00316 µM", "value": 89.2, "unit": "%"}, {"measurement": "viability, T/C", "setting": "second compound 0.01 µM, first compound 0.01 µM", "value": 82.8, "unit": "%"}, {"measurement": "viability, T/C", "setting": "[1]", "value": 89.6, "unit": "%"}, {"measurement": "viability, T/C", "setting": "[2]", "value": 63.1, "unit": "%"}, {"measurement": "viability, T/C", "setting": "second compound 0.0316 µM, first compound 0.000316 µM", "value": 89.1, "unit": "%"}, {"measurement": "viability, T/C", "setting": "second compound 0.0316 µM, first compound 0.001 µM", "value": 82.4, "unit": "%"}, {"measurement": "viability, T/C", "setting": "second compound 0.0316 µM, first compound 0.00316 µM", "value": 92, "unit": "%"}, {"measurement": "viability, T/C", "setting": "second compound 0.0316 µM, first compound 0.01 µM", "value": 73.2, "unit": "%"}, {"measurement": "viability, T/C", "setting": "[3]", "value": 91.6, "unit": "%"}, {"measurement": "viability, T/C", "setting": "[4]", "value": 54, "unit": "%"}, {"measurement": "viability, T/C", "setting": "second compound 0.1 µM, first compound 0.000316 µM", "value": 92, "unit": "%"}, {"measurement": "viability, T/C", "setting": "second compound 0.1 µM, first compound 0.001 µM", "value": 103, "unit": "%"}, {"measurement": "viability, T/C", "setting": "second compound 0.1 µM, first compound 0.00316 µM", "value": 94.9, "unit": "%"}, {"measurement": "viability, T/C", "setting": "second compound 0.1 µM, first compound 0.01 µM", "value": 97.5, "unit": "%"}, {"measurement": "viability, T/C", "setting": "[5]", "value": 78.5, "unit": "%"}, {"measurement": "viability, T/C", "setting": "[6]", "value": 63.7, "unit": "%"}, {"measurement": "viability, T/C", "setting": "second compound 0.316 µM, first compound 0.000316 µM", "value": 92.8, "unit": "%"}, {"measurement": "viability, T/C", "setting": "second compound 0.316 µM, first compound 0.001 µM", "value": 85, "unit": "%"}, {"measurement": "viability, T/C", "setting": "second compound 0.316 µM, first compound 0.00316 µM", "value": 86.6, "unit": "%"}, {"measurement": "viability, T/C", "setting": "second compound 0.316 µM, first compound 0.01 µM", "value": 90.2, "unit": "%"}, {"measurement": "viability, T/C", "setting": "[7]", "value": 78.2, "unit": "%"}, {"measurement": "viability, T/C", "setting": "[8]", "value": 70.1, "unit": "%"}, {"measurement": "viability, T/C", "setting": "second compound 1 µM, first compound 0.000316 µM", "value": 86.7, "unit": "%"}, {"measurement": "viability, T/C", "setting": "second compound 1 µM, first compound 0.001 µM", "value": 83.5, "unit": "%"}, {"measurement": "viability, T/C", "setting": "second compound 1 µM, first compound 0.00316 µM", "value": 82.3, "unit": "%"}, {"measurement": "viability, T/C", "setting": "second compound 1 µM, first compound 0.01 µM", "value": 68.2, "unit": "%"}, {"measurement": "viability, T/C", "setting": "[9]", "value": 66.6, "unit": "%"}, {"measurement": "viability, T/C", "setting": "[10]", "value": 68.9, "unit": "%"}]}]}
